Where two headings read alike, the source gives them in different places.
Columns and labels:
[1] = tested on: SR; assay: NCI 60 five dose screen; settings: for GI50 / CC50: Homo sapiens, SR; for CC50: read-out: LC50; for TGI: SR (Leukemia), five dose
[2] = tested on: 60 different human tumor cell lines; settings: for TGI: five dose
[3] = tested on: gliosarcoma (SF-539); assay: NCI 60 five dose screen; settings: for GI50 / CC50: Homo sapiens; for GI50: SF-539; for CC50: SF-539, read-out: LC50; for TGI: SF-539 (CNS Cancer), five dose
[4] = tested on: SK-MEL-5; assay: Melanoma cytotoxicity assay (resazurin); format: cell-based; settings: SK-MEL-5 melanoma cells, 24 hours with compound, resazurin; concentration not given
How it was run: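 Viability read by resazurin fluorescence (ex 544, em 590 nm) after 6 h, following 24 h compound exposure of cells plated 24 h earlier (~4000/well). Triplicate means, minus medium blank, divided by DMSO control; IC50 derived from sigmoidal dose-response curves.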

[5] = EKVX (Non-small Cell Lung Cancer)
[6] = HOP-62 (Non-small Cell Lung Cancer)
[7] = HOP-92 (Non-small Cell Lung Cancer)
[8] = NCI-H23 (Non-small Cell Lung Cancer)
[9] = NCI-H226 (Non-small Cell Lung Cancer)
[10] = NCI-H322M (Non-small Cell Lung Cancer)
[11] = NCI-H460 (Non-small Cell Lung Cancer)
[12] = NCI-H522 (Non-small Cell Lung Cancer)
[13] = A549/ATCC (Non-small Cell Lung Cancer)

C[C@]12CCc3sc(NCCc4ccccc4)nc3C1=CC[C@@H]1[C@@H]2CC[C@]2(C)C(=O)CC[C@@H]12 [IIa.2, (1S,2R,13R,14S,18S)-2,18-dimethyl-7-(2-phenylethylamino)-6-thia-8-azapentacyclo [11.7.0.02,10.05,9.014,18]icosa-5(9),7,10-trien-17-one]
GI50 [1]: 3.07 µM | CC50 [1]: > 100 µM | TGI [1]: >1.00E−4 | LC50 [2]: >l.00E−4 | TGI ([2]; 786-0 (Renal Cancer)): 9.61E−6 | TGI ([2]; A498 (Renal Cancer)): >1.00E−4 | TGI ([2]; ACHN (Renal Cancer)): 3.75E−6 | TGI ([2]; BT-549 (Breast Cancer)): >1.00E−4 | TGI ([2]; CAKI-1 (Renal Cancer)): 1.11E−5 | TGI ([2]; CCRF-CEM (Leukemia)): 4.04E−5 | TGI ([2]; COLO 205 (Colon Cancer)): 8.77E−6 | TGI ([2]; DU-145 (Prostate Cancer)): >1.00E−4 | TGI [2, 5]: >1.00E−4 | TGI ([2]; HCC-2998 (Colon Cancer)): >1.00E−4 | TGI ([2]; HCT-15 (Colon Cancer)): 4.49E−6 | TGI ([2]; HCT-116 (Colon Cancer)): 1.23E−5 | TGI ([2]; HL-60(TB) (Leukemia)): 9.10E−6 | TGI [2, 6]: >1.00E−4 | TGI [2, 7]: 9.10E−6 | TGI ([2]; HS 578T (Breast Cancer)): >1.00E−4 | TGI ([2]; HT29 (Colon Cancer)): 8.11E−6 | TGI ([2]; IGROV1 (Ovarian Cancer)): 6.18E−6 | TGI ([2]; K-562 (Leukemia)): >1.00E−4 | TGI ([2]; KM12 (Colon Cancer)): >1.00E−4 | TGI ([2]; LOX IMVI (Melanoma)): 3.17E−6 | TGI ([2]; M14 (Melanoma)): >1.00E−4 | TGI ([2]; MALME-3M (Melanoma)): 6.82E−6 | TGI ([2]; MCF7 (Breast Cancer)): >1.00E−4 | TGI ([2]; MDA-MB-231/ATCC (Breast Cancer)): 2.14E−5 | TGI ([2]; MDA-MB-435 (Melanoma)): >1.00E−4 | TGI ([2]; MDA-MB-468 (Breast Cancer)): 1.03E−5 | TGI ([2]; MOLT-4 (Leukemia)): >1.00E−4 | TGI [2, 8]: >1.00E−4 | TGI [2, 9]: 6.57E−6 | TGI [2, 10]: >1.00E−4 | TGI [2, 11]: >1.00E−4 | TGI [2, 12]: 3.64E−6 | TGI ([2]; NCI/ADR-RES (Ovarian Cancer)): 7.52E−6 | TGI ([2]; OVCAR-3 (Ovarian Cancer)): 4.83E−6 | TGI ([2]; OVCAR-4 (Ovarian Cancer)): >1.00E−4 | TGI ([2]; OVCAR-5 (Ovarian Cancer)): 6.59E−5 | TGI ([2]; OVCAR-8 (Ovarian Cancer)): >1.00E−4 | TGI ([2]; PC-3 (Prostate Cancer)): >1.00E−4 | TGI ([2]; RXF 393 (Renal Cancer)): 4.49E−6 | TGI ([2]; SF-268 (CNS Cancer)): >1.00E−4 | TGI ([2]; SK-MEL-2 (Melanoma)): >1.00E−4 | TGI ([2]; SK-MEL-5 (Melanoma)): 5.27E−5 | TGI ([2]; SK-MEL-28 (Melanoma)): 1.89E−5 | TGI ([2]; SK-OV-3 (Ovarian Cancer)): >1.00E−4 | TGI ([2]; SN12C (Renal Cancer)): >1.00E−4 | TGI ([2]; SNB-19 (CNS Cancer)): >1.00E−4 | TGI ([2]; SW-620 (Colon Cancer)): 5.28E−6 | TGI ([2]; T-47D (Breast Cancer)): 2.52E−5 | TGI ([2]; TK-10 (Renal Cancer)): >1.00E−4 | TGI ([2]; U251 (CNS Cancer)): >1.00E−4 | TGI ([2]; UACC-62 (Melanoma)): 1.06E−5 | TGI ([2]; UACC-257 (Melanoma)): 7.98E−5 | TGI ([2]; UO-31 (Renal Cancer)): 2.51E−5 | GI50 [3]: 1.69 µM | CC50 [3]: 7.75 µM | TGI [3]: 3.62E−6 | SK-MEL-5 (% inhibition) [4]: 73%

C[C@]12CCc3sc(Nc4ccc(F)cc4F)nc3C1=CC[C@@H]1[C@@H]2CC[C@]2(C)C(=O)CC[C@@H]12 [IIa.10, (1S,2R,13R,14S,18S)-7-(2,4-difluoroanilino)-2,18-dimethyl-6-thia-8-azapentacyclo[11.7.0.02,10.05,9.014,18]icosa-5(9),7,10-trien-17-one]
GI50 [1]: 2.9 µM | CC50 [1]: > 100 µM | TGI ([2]; A498 (Renal Cancer)): >1.00E−4 | TGI [2, 13]: >1.00E−4 | TGI ([2]; BT-549 (Breast Cancer)): >1.00E−4 | TGI [2, 5]: >1.00E−4 | TGI ([2]; HS 578T (Breast Cancer)): >1.00E−4 | TGI ([2]; K-562 (Leukemia)): >1.00E−4 | TGI ([2]; MOLT-4 (Leukemia)): >1.00E−4 | TGI [2, 10]: >1.00E−4 | TGI ([2]; OVCAR-4 (Ovarian Cancer)): >1.00E−4 | TGI ([2]; OVCAR-5 (Ovarian Cancer)): >1.00E−4 | TGI ([2]; OVCAR-8 (Ovarian Cancer)): >1.00E−4 | TGI ([2]; SK-OV-3 (Ovarian Cancer)): >1.00E−4 | TGI ([2]; SNB-19 (CNS Cancer)): >1.00E−4 | TGI ([2]; U251 (CNS Cancer)): >1.00E−4 | GI50 [3]: 1.63 µM | SK-MEL-5 (% inhibition) [4]: 48%

C[C@]12CCc3sc(Nc4ccc(OC(F)(F)F)cc4)nc3C1=CC[C@@H]1[C@@H]2CC[C@]2(C)C(=O)CC[C@@H]12 [IIa.19, (1S,2R,13R,14S,18S)-2,18-dimethyl-7-[4-(trifluoromethoxy)anilino]-6-thia-8-azapentacyclo[11.7.0.02,10.05,9.014,18]icosa-5(9),7,10-trien-17-one]
GI50 [1]: 2.74 µM | CC50 [1]: > 100 µM | TGI [1]: >1.00E−4 | TGI [2, 13]: 1.61E−5 | TGI ([2]; CCRF-CEM (Leukemia)): >1.00E−4 | TGI ([2]; COLO 205 (Colon Cancer)): 6.76E−6 | TGI [2, 5]: 1.74E−5 | TGI ([2]; HCC-2998 (Colon Cancer)): 1.86E−5 | TGI ([2]; HCT-15 (Colon Cancer)): 4.10E−6 | TGI ([2]; HCT-116 (Colon Cancer)): 2.78E6 | TGI ([2]; HL-60(TB) (Leukemia)): 4.44E−6 | TGI [2, 6]: 4.19E−6 | TGI [2, 7]: 3.44E−6 | TGI ([2]; HT29 (Colon Cancer)): 1.09E−5 | TGI ([2]; K-562 (Leukemia)): 6.64E−6 | TGI ([2]; KM12 (Colon Cancer)): 1.50E−5 | TGI ([2]; LOX IMVI (Melanoma)): 3.18E−6 | TGI ([2]; MALME-3M (Melanoma)): 1.68E−5 | TGI ([2]; MOLT-4 (Leukemia)): 1.19E−5 | TGI [2, 8]: 2.17E−5 | TGI [2, 9]: 4.41E−5 | TGI [2, 10]: 4.89E−5 | TGI [2, 11]: 1.18E−5 | TGI [2, 12]: 4.56E−6 | TGI ([2]; SF-268 (CNS Cancer)): 1.23E−5 | TGI ([2]; SNB-19 (CNS Cancer)): 9.93E−6 | TGI ([2]; SNB-75 (CNS Cancer)): 6.23E−6 | TGI ([2]; SW-620 (Colon Cancer)): 5.00E−6 | TGI ([2]; U251 (CNS Cancer)): 3.26E−6 | GI50 [3]: 1.05 µM | CC50 [3]: 7.07 µM | TGI [3]: 2.72E−6 | SK-MEL-5 (% inhibition) [4]: 43%
